Structures can show the parent of a compound that is named as a salt.

These results are taken from US7820675B2, “Benzofuran compounds” (Biovitrum AB, priority 2003, dated 2010).

The first test deals with T1, human 5-HT6 receptor (Homo sapiens, UniProt P50406).
T1 construct: expressed in transfected cells; host or cells: HEK293
T1 sequence (P50406 whole entry): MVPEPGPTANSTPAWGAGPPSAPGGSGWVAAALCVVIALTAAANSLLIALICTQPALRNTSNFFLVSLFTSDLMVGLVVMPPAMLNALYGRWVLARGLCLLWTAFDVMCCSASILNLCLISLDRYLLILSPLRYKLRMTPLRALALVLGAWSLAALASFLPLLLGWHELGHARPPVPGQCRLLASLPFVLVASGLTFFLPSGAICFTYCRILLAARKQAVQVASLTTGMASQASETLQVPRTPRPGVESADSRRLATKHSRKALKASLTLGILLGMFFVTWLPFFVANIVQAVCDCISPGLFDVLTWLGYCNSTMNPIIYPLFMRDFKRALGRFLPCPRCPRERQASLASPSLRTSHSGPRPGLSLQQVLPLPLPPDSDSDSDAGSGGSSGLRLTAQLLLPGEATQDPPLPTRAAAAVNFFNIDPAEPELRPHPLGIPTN
In words: 5-HT6 binding assay ([3H]-LSD competition, SPA, membranes of transfected HEK293 cells). As to conditions: competitive binding, [3H]-LSD radioligand, Ki calculated from IC50 (Cheng).
For `COc1ccc(C)cc1S(=O)(=O)Nc1cc(O[C@H]2CCNC[C@H]2F)c2occc2c1` (relative stereo) [Example 84, N-(7-{[cis-3-Fluoropiperidin-4-yl]oxy}-1-benzofuran-5-yl)-2-methoxy-5-methylbenzenesulfonamide hydrochloride], the Ki is 0.0075 µM.

In the case of `COc1ccc(C)cc1S(=O)(=O)Nc1cc(O[C@@H]2CCNC[C@H]2F)c2occc2c1` (relative stereo) [Example 85, N-(7-{[trans-3-Fluoropiperidin-4-yl]oxy}-1-benzofuran-5-yl)-2-methoxy-5-methylbenzenesulfonamide hydrochloride], the Ki was 0.007 µM.

Consider `O=S(=O)(Nc1cc(O[C@H]2CCNC[C@H]2F)c2occc2c1)c1ccccc1C(F)(F)F` (relative stereo) [Example 86, N-(7-{[cis-3-Fluoropiperidin-4-yl]oxy}-1-benzofuran-5-yl)-2-(trifluoromethyl)benzenesulfonamide hydrochloride], for which the Ki is 0.007 µM.

On to `O=S(=O)(Nc1cc(O[C@@H]2CCNC[C@H]2F)c2occc2c1)c1ccccc1C(F)(F)F` (relative stereo) [Example 87, N-(7-{[trans-3-Fluoropiperidin-4-yl]oxy}-1-benzofuran-5-yl)-2-(trifluoromethyl)benzenesulfonamide hydrochloride], for which the Ki was 0.0053 µM.

In the case of `Cc1cccc(S(=O)(=O)Nc2cc(O[C@@H]3CCNC[C@H]3F)c3occc3c2)c1` (relative stereo) [Example 89, N-(7-{[trans-3-Fluoropiperidin-4-yl]oxy}-1-benzofuran-5-yl)-3-methylbenzenesulfonamide hydrochloride], the Ki is 0.014 µM.

For the compound `O=S(=O)(Nc1cc(O[C@@H]2CCNC[C@H]2F)c2occc2c1)c1cc(F)ccc1Cl` (relative stereo) [Example 91, 2-Chloro-5-fluoro-N-(7-{[trans-3-fluoropiperidin-4-yl]oxy}-1-benzofuran-5-yl)benzenesulfonamide hydrochloride], the Ki is 0.056 µM.

With `O=S(=O)(Nc1cccc2cc(C3=CN4CCC3CC4)oc12)c1ccccc1` [Example 36, N-[2-(1-Azabicyclo[2.2.2]oct-2-en-3-yl)-1-benzofuran-7-yl]benzenesulfonamide hydrochloride], the Ki was 0.02 µM.

Consider `COc1ccc(C)cc1S(=O)(=O)Nc1cc(CN2CCNCC2)c2occc2c1` [Example 54, 2-Methoxy-5-methyl-N-[7-(piperazin-1-ylmethyl)-1-benzofuran-5-yl]benzenesulfonamide hydrochloride], for which the Ki is 0.0174 µM.

As to `CCN1CCC[C@@H]1CNc1cc(NS(=O)(=O)c2ccccc2C(F)(F)F)cc2ccoc12` [Example 67, N-[7-({[(2R)-1-Ethylpyrrolidin-2-yl]methyl}amino)-1-benzofuran-5-yl]-2-(trifluoromethyl)benzenesulfonamide hydrochloride], the Ki was 0.013 µM.

Turning to `COc1ccc(C)cc1NS(=O)(=O)c1cc(CN2CCNC(C)C2)c2occc2c1` (stereo not shown) [Example 92, N-(2-Methoxy-5-methylphenyl)-7-[(3-methylpiperazin-1-yl)methyl]-1-benzofuran-5-sulfonamide hydrochloride], the Ki was 0.00556 µM.

The same test, now with this note: over three experiments.
In the case of `NCCc1c[nH]c2ccc(O)cc12` [Example 5-HT, 5-hydroxytryptamine, reference compound], the Hill coefficient is recorded as 0.94 (SD 0.09).

Another test deals with T1, human 5-HT6 receptor. Kind of test: 5-HT6 intrinsic activity assay (inhibition of 5-HT induced increase in cAMP). It is filed as cell-based. As to conditions: read-out: fKi. As for the experimental part:
Briefly, HEK293/5-HT6 cells were seeded in polylysine coated 96-well plates at a density of 25,000/well and grown in DMEM (Dulbecco's Modified Eagle Medium) (without phenol-red) containing 5% dialyzed Foetal Bovine Serum for 48 h at 37° C. in a 5% CO2 incubator. The medium was then aspirated and replaced by 0.1 mL assay medium (Hanks Balance Salt Solution containing 20 mM HEPES, 1.5 mM isobutylmethylxanthine and 1 mg/mL bovine serum albumin). After addition of test substances, 50 μl dissolved in assay medium, the cells were incubated for 10 min at 37° C. in a 5% CO2 incubator. The medium was again aspirated and the cAMP content was determined using a radioactive cAMP kit (Amersham Pharmacia Biotech, BIOTRAK RPA559).
Table 4. Functional in vitro data at the h-5-HT receptor (fKi). Data are expressed as fKi,=IC50/(1+[5HT]/EC50).
For the compound `CNCCCN(C)c1cc(NS(=O)(=O)c2ccccc2)cc2ccoc12` [Example 1, N-(7-{Methyl[3-(methylamino)propyl]amino}-1-benzofuran-5-yl)benzenesulfonamide hydrochloride], the Ki turned out to be 0.087 µM.

Consider `Fc1ccc(CNc2cc(N3CCNCC3)c3occc3c2)cc1F` [Example 12, N-(3,4-Difluorobenzyl)-7-piperazin-1-yl-1-benzofuran-5-amine hydrochloride], for which the Ki was determined as 0.087 µM.

In the case of `COc1ccc(C)cc1S(=O)(=O)Nc1cc(-c2ccncc2)c2occc2c1` [Example 28, 2-Methoxy-5-methyl-N-(7-pyridin-4-yl-1-benzofuran-5-yl)benzenesulfonamide], the Ki stood at 0.066 µM.

As to `O=S(=O)(Nc1cc(-c2cncnc2)c2occc2c1)c1ccccc1` [Example 32, N-(7-Pyrimidin-5-yl-1-benzofuran-5-yl)benzenesulfonamide hydrochloride], the Ki was found to be 0.054 µM.

Take `COc1ccc(C)cc1S(=O)(=O)Nc1cc(C2=CN3CCC2CC3)c2occc2c1` [Example 33, N-[7-(1-Aza-bicyclo[2.2.2]oct-2-en-3-yl)-benzofuran-5-yl]-2-methoxy-5-methylbenzenesulfonamide hydrochloride]: the Ki was found to be 0.02 µM.
